# Measurements as given in US4921863A, “Cyclic amine derivatives” (Eisai Co., Ltd., priority 1988, dated 1990).
# Tested on: learning disorder after ischemia
# Assay: Effect of remedying learning disorder after ischemia (passive avoidance method)
# Type: in vivo, Mongolian gerbils
# Details: p.o.; for Latent time (average ± S.E.): 1 h before 5-min ischemia, upper limit 300 sec, normal 246.5, control 71.5 sec; for Recovery ratio: normal = 100, control = 0
# Experimental: Common carotid arteries on both sides of Mongolian gerbils (17 to 21 weeks old) were clipped with Skoville clamps without anesthesia and the clamps were removed after 5 min to realize a short period of ischemia. Twenty-four hours after the removal of the clamps, these animals were subjected to learning and memory tests were conducted after an additional 24 h. The learning and memory functions were examined by the passive avoidance method with a modification of a device reported by Jarvik and Kopp in "Psychological Reports", 21, 221 to 224 (1967). The device had two chambers, […] chamber A and a dark chamber B. In the tests, the animals were placed in the well-lighted chamber A and an electric current (A.C., 1.6 mA) was applied to a grid on the floor of the dark chamber B for 5 min when they entered the chamber B. On the next day, the animals subjected to the learning were placed in the chamber A and the time (latent time) which had elapsed before they entered the chamber B was measured. The upper limit of the latent time was set at 300 sec. The compound was administered in the form of a 5% suspension in acacia orally one hour before causing the ischemia. A 5% acacia solution was administered to the control group.
Structure (SMILES),Latent time (average ± S.E.) (3 mg/kg) [s],Recovery ratio (3 mg/kg) [%],Latent time (average ± S.E.) (10 mg/kg) [s],Recovery ratio (10 mg/kg) [%],Latent time (average ± S.E.) (30 mg/kg) [s],Recovery ratio (30 mg/kg) [%]
"Cl.O=C(CN1CCC(C(=O)c2ccc(F)cc2)CC1)c1ccc2ccccc2c1 [Example 12, 2-[4-(p-Fluorobenzoyl)-1-piperidinyl]-2'-acetonaphthone hydrochloride]",168.8 ± 23.0,56,196.8 ± 22.3,72,196.3 ± 37.0,71
c1ccc(CC2CCN(CCc3ccc4ccccc4c3)CC2)cc1 [Example 73],,,193.1 ± 35.3,69,80.1 ± 28.2,5
O=C(CN1CCC(=Cc2ccc(F)cc2)CC1)c1ccc2ccccc2c1 [Example 74],110.2 ± 29.0,22,123.2 ± 24.3,30,129.2 ± 23.8,33
